In paper PMC12680861, “Comparative analysis of LJ-4378 and tirzepatide in mouse models of obesity and weight regain” (Archives of Pharmacal Research, 2025):

What was measured:
[1] = tested on: HFD-fed mice; assay: Indirect calorimetry and food intake in HFD-fed mice; assay type: in vivo, C57BL/6 J male mice; conditions: for energy expenditure adjusted for body weight and lean body mass (ANCOVA) / food intake (indirect calorimetry): HFD-fed mice; for VO2, VCO2 and energy expenditure: relative to HFD controls, last 2 days of 14-day treatment
Description: (§1) To evaluate the anti-obesity effect in vivo, mice fed either NCD or HFD for 10 weeks were subsequently treated for up to 4 weeks. To control for injection route-related variables, all mice received both intraperitoneal (I.P.) and subcutaneous (S.C.) injections. The administration were as follows: LJ-4378 treated mice received LJ-4378, which was synthesized in our laboratory at > 95% purity (1 mg/kg/day, I.P.) (Hou et al. [2010]; Kim et al. [2022]) along with the vehicle for TZP (40 mM Tris–HCl, pH 8, S.C.); TZP treated mice received TZP (Samms et al. [2021]; Kim et al. [2022]) (LY3298176, MedChemExpress, Monmouth Junction, NJ, USA) (10 nmol/kg/day, S.C.) along with the vehicle for LJ-4378 (0.2% DMSO, I.P.); vehicle control mice received both vehicles (0.2% DMSO, I.P. and 40 mM Tris–HCl, pH 8, S.C.)
To assess post-treatment weight rebound (WR), the mice previously treated with vehicle, LJ-4378, or TZP were maintained on HFD for an additional 4 weeks following treatment cessation. Treatment protocols for the WR groups were identical to those of the HFD groups. In total, nine experimental groups were established: NCD + CTL, NCD + LJ, NCD + TZP; HFD + CTL, HFD + LJ, HFD + TZP; and WR + CTL, WR + LJ, WR + TZP. The volume of oxygen consumed (VO2), carbon dioxide produced (VCO2), respiratory exchange ratio (RER), energy expenditure, activity, and food intake were measured with PhenoMaster (TSE Systems, Bad Homburg, Germany). Indirect calorimetry was performed under controlled conditions, with a stable ambient temperature of 24 °C and a 12 h light/12-h dark cycle. Mice fed HFD were administered vehicle, LJ-4378, or TZP for 14 days, and the last 2 days of treatment were conducted during indirect calorimetry analysis. The WR model was examined by indirect calorimetry after 2 and 4 weeks of the weight regaining phase.

[2] = tested on: HFD-fed mice; assay: Adipose tissue (gWAT) and systemic inflammation in HFD-fed mice; assay type: in vivo, C57BL/6 J male mice; conditions: for serum TNF-α levels: ELISA; for macrophage accumulation in gWAT (F4/80 protein, crown-like structures): compared with HFD controls
Description: as §1
The serum TNF-α level was measured using TNF-alpha ELISA MTA00B (R&D system) in accordance with the manufacturer’s protocol.
For protein extraction, we utilized PRO-RERP Protein Extraction Solution (17081, iNtRON Biotechnology, Gyeonggi-do, Korea), supplemented with […] Protease Inhibitor (S8820, Sigma, St. Louis, MO, USA) and PhosSTOP phosphatase inhibitor (#4906837001, Roche, Basel, Switzerland). Protein concentrations were determined using the Pierce BCA protein assay Kit (#23227, Thermo Fisher, Waltham, Massachusetts, USA) by measuring absorbance at 562 nm with a MultiSkan GO spectrophotometer (Thermo Fisher). The quantified proteins were loaded and separated in 12% SDS-PAGE gels and transferred to polyvinylidene difluoride (PVDF) membranes (Bio-Rad, Hercules, CA, USA). Membranes were blocked in 5% bovine serum albumin or skim milk in Tris-buffered saline with 0.1% Tween 20 (TBST) for 1 h, followed by overnight incubation with primary antibodies. The next day, membranes were washed 3 times with TBST and incubated for 1 h with horseradish peroxidase (HRP)-conjugated secondary antibody: Goat anti-rabbit (1:3000, #31460, Thermo Fisher) and Goat anti-Mouse IgG (1:3000, 115–035-174, Jackson ImmunoResearch). After secondary antibody incubation, membranes were washed 3 times with TBST and detected with the Fusion Solo chemiluminescence imaging system (Vilber Lourmat, France). EvolutionCapt (version 17.03) software and the ImageJ (National Institutes of Health, Bethesda, MD, USA) program were used for analysis and to quantify the protein level.
RT-qPCR was conducted according to the method (Cho et al. [2022]). The tissue samples were lysed in TRIzol (#15596018, Thermo Fisher), and the total RNA was extracted. The extracted RNA was synthesized into cDNA using the cDNA Reverse Transcription Kit (Applied Biosystems, Waltham, MA, USA). mRNA levels were quantified using iQ SYBR Green Supermix on the CFX Connect Real-time system (Bio-rad). Relative expression levels of each gene were calculated using the […] method, with the reference housekeeping gene as follows: Peptidylprolyl isomerase A (Ppia) for adipose tissue and glyceraldehyde-3-phosphate dehydrogenase (Gapdh) for hypothalamus.
Adipose tissues were fixed in 10% formalin (HT50128, Sigma) for 2 days and made into paraffin slides. The deparaffinized sections were stained with ClearView Staining Hematoxylin (MA010081, BBC Biochemical, Mount Vernon, WA, USA) and Eosin Y Alcoholic (#3610, BBC Biochemical) solution. The crown-like structure formation of gonadal white adipose tissue (gWAT) and triglyceride (TG) accumulation in the liver are observed using hematoxylin and eosin staining on paraffin slides. The images were captured using Nikon Elements (NIS BR Analysis ver 5.10.00).

Compound | energy expenditure adjusted for body weight and lean body mass (ANCOVA) [1] | food intake (indirect calorimetry) [1] | VO2, VCO2 and energy expenditure [1] | serum TNF-α levels ([2]; HFD-fed mice) | Adgre1 and Tnf-α expression in gWAT ([2]; HFD-fed mice, RT-qPCR) | M2-like macrophage markers (Arg1, Clec10a, Chil3, Il-10) in gWAT ([2]; HFD-fed mice, RT-qPCR) | macrophage accumulation in gWAT (F4/80 protein, crown-like structures) [2]
CCCCC#Cc1nc(N)c2ncn([C@@H]3SC[C@@H](O)[C@H]3O)c2n1 [LJ-4378] | consistently increased energy expenditure | did not affect the feeding behavior | significantly increased | reduced | remarkably suppressed | selectively upregulated | significantly reduced
Tirzepatide [TZP, reference compound] | not significant when LBM was used as the covariate | reduced food consumption | significantly increased | reduced | remarkably suppressed | – | significantly reduced
